From US20170107207A1, “AMINOPYRAZOLONE DERIVATIVE” (DAIICHI SANKYO COMPANY, LIMITED, priority 2014, published 2017)

What was measured:
[1] = test system: human lymphoma cell line RAMOS cells; assay: Cell growth inhibition test using RAMOS cell, MTT assay; assay type: cell-based; conditions: 50% growth inhibition concentration
Experimental: A cell growth inhibition test was carried out by treating human lymphoma cell line RAMOS cells with a test compound for a given period and then counting the number of viable cells by MTT assay or CellTiter-Glo Luminescent Cell Viability Assay (manufactured by Promega Corp.; hereinafter, referred to as ATP assay).
RAMOS cells were suspended in a medium (RPMI1640 medium containing 10% fetal bovine serum). The cell suspension was inoculated at 5000 cells/150 μL/well to a 96-well multiwell plate. The test compound was dissolved in DMSO, and this solution was diluted with medium to prepare a sample solution (DMSO concentration: 1% or lower). Subsequently, test compound-free medium or the sample solution was added thereto at 50 μL/well. The MTT assay was carried out at the day of addition of the sample solution or the DMSO dilution to the cells and after culture at 37° C. for 3 days under 5% CO2 of the cells supplemented with the sample solution or the medium. The MTT assay was carried out as follows.
A 5 mg/mL solution of MTT (3-(4,5-dimethylthiazol-2-yl)-2,5-diphenyltetrazolium bromide, Sigma-Aldrich Corp., M-2128) was prepared using a phosphate buffered solution (Dulbecco's phosphate-buffered saline). This MTT solution was added at 20 μL/well to the plate. Then, the plate was incubated at 37° C. for 4 hours under 5% CO2. The plate was centrifuged at 1200 rpm for 5 minutes, and then, the culture supernatant was removed by suction using a dispenser. DMSO was added thereto at 150 μL/well to dissolve formed formazan. […] from each well was rendered uniform by the stirring of the plate using a plate mixer. The absorbance of each well was measured using a plate reader under conditions involving OD of 540 nm and reference of 660 nm.
The number of viable cells and absorbance (hereinafter, referred to as an OD value) have been confirmed to correlate with each other. Therefore, the rate of cell growth was calculated according to the following expression: Rate of cell growth (T/C %) of a test compound-supplemented well=100×[(B−C)/(A−C)] wherein A represents the OD value (final culture date) of a test compound-free well; B represents the OD value (final culture date) of a test compound-containing well; and C represents the OD value (day of cell inoculation) of a well at the start of contact of the cells with the test compound.
T/C % at each concentration of the test compound was determined. The concentration at which the test compound offered 50% growth rate was calculated as a 50% growth inhibition concentration (GI50) value from the growth rates at two points interpolating 50% and the concentrations, and is shown in Table 56.

TIP48/TIP49 complex = target: T1, TIP48/TIP49 complex (Homo sapiens, UniProt Q9Y230+Q9Y265); assay: ATPase assay of TIP48/TIP49 complex (ADP-Glo); assay type: biochemical; conditions: concentration at which the ATPase activity was inhibited by 50%
T1 construct: made in house; host or cells: E. coli
In short: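 Recombinant human TIP48 and TIP49 expressed in E. coli (24.5 μg/mL final) were incubated 1.5 h at room temperature with compound (0.0007–200 μM, 2% DMSO) in Tris-HCl pH 7.5 buffer containing MgCl2 and ATP. ADP formed was detected by ADP-Glo luminescence; inhibition came from dose-response curves.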

[2] = test system: human lymphoma cell line RAMOS cells; assay: Cell growth inhibition test using RAMOS cell, ATP assay (CellTiter-Glo); assay type: cell-based; conditions: Homo sapiens, 72 h, cultured 3 days, 50% growth inhibition concentration
In short: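 RAMOS cells seeded at 4000 cells/well with compound and cultured 3 days at 37° C, 5% CO2; viability by CellTiter-Glo luminescence. Growth rate T/C % = 100×[(B−C)/(A−C)] using day-0 and final readings; GI50 interpolated from the two concentrations bracketing 50% growth.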

T1 sequence (Q9Y230 whole entry): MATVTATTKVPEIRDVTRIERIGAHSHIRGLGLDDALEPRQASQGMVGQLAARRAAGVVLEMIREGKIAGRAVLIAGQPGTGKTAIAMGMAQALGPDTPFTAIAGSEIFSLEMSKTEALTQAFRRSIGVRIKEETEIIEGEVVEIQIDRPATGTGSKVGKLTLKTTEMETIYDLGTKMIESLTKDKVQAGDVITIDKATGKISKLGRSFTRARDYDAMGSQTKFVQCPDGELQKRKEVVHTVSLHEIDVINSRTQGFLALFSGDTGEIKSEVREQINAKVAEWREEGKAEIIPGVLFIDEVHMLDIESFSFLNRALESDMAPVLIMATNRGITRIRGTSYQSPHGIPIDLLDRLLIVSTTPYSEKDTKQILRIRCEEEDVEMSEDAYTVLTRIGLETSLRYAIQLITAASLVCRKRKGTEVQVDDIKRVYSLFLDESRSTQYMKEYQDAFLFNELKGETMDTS
T1 sequence (Q9Y265 whole entry): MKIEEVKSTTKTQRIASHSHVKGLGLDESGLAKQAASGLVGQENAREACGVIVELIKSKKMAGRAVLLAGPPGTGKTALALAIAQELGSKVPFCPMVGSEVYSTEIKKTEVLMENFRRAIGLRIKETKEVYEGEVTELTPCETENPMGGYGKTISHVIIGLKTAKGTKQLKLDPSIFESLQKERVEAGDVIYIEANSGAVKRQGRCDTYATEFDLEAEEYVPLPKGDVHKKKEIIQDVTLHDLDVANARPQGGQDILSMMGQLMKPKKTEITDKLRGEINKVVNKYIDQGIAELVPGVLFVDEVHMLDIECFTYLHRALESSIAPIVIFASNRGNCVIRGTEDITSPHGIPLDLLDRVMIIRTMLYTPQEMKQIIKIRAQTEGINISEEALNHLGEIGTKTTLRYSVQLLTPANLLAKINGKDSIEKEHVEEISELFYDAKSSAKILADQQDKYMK

Structure (SMILES) | GI50 [1] | IC50 (TIP48/TIP49 complex) | GI50 ([2]; Ramos) | GI50 [2]
COc1ccc(CN(C)Cc2c(NC(=O)CC(C)(C)CNC(=O)c3cc(Cl)ccc3OC)c(=O)n(-c3ccccc3)n2C)c(OC)c1 [Example 3, 5-Chloro-N-{4-[(5-{[(2,4-dimethoxyphenylmethyl)-methylamino]methyl}-1-methyl-3-oxo-2-phenyl-2,3-dihydro-1H-pyrazol-4-yl)amino]-2,2-dimethyl-4-oxobutyl}-2-methoxybenzamide] | 850 nM | 54 nM |  | 
CNCc1c(NC(=O)CC(C)(C)CNC(=O)c2cc(Cl)ccc2OC)c(=O)n(-c2ccccc2)n1C [Example 4, 5-Chloro-N-(2,2-dimethyl-4-{[1-methyl-5-(methylaminomethyl)-3-oxo-2-phenyl-2,3-dihydro-1H-pyrazol-4-yl]amino}-4-oxobutyl)-2-methoxybenzamide] | 170 nM | 48 nM |  | 
COc1cc(F)c(Cl)cc1C(=O)NCC(C)(C)CC(=O)Nc1c(CN(C)C)n(C)n(-c2ccccc2)c1=O [Example 6, 5-Chloro-N-[4-({5-[(dimethylamino)methyl]-1-methyl-3-oxo-2-phenyl-2,3-dihydro-1H-pyrazol-4-yl}amino)-2,2-dimethyl-4-oxobutyl]-4-fluoro-2-methoxybenzamide] | 170 nM | 150 nM |  | 
COc1ncc(Cl)cc1C(=O)NCC(C)(C)CC(=O)Nc1c(CN(C)C)n(C)n(-c2ccccc2)c1=O [Example 7, 5-Chloro-N-[4-({5-[(dimethylamino)methyl]-1-methyl-3-oxo-2-phenyl-2,3-dihydro-1H-pyrazol-4-yl}amino)-2,2-dimethyl-4-oxobutyl]-2-methoxypyridine-3-carboxamide] | 470 nM | 110 nM |  | 
COc1cc(F)c(Cl)cc1NC(=O)CC(C)(C)CC(=O)Nc1c(CN(C)C)n(C)n(-c2ccccc2)c1=O [Example 9, N-(5-Chloro-4-fluoro-2-methoxyphenyl)-N′-{5-[(dimethylamino)methyl]-1-methyl-3-oxo-2-phenyl-2,3-dihydro-1H-pyrazol-4-yl}-3,3-dimethylpentanediamide] | 480 nM | 210 nM |  | 
CCOc1ncc(Cl)cc1NC(=O)CC(C)(C)CC(=O)Nc1c(C(C)OC)n(C)n(-c2ccccc2)c1=O (centres unmarked) [Example 126, N-(5-Chloro-2-ethoxy-3-pyridyl)-N′-[5-(1-methoxyethyl)-1-methyl-3-oxo-2-phenyl-2,3-dihydro-1H-pyrazol-4-yl]-3,3-dimethylpentanediamide] |  | 56 nM | 580 nM | 
CCOc1ccc(Cl)cc1C(=O)NCC(CF)(CF)CC(=O)Nc1c(COC)n(C)n(-c2ccccc2)c1=O [Example 148, N-(2,2-Bis(fluoromethyl)-4-{[5-(methoxymethyl)-1-methyl-3-oxo-2-phenyl-2,3-dihydro-1H-pyrazol-4-yl]amino}-4-oxobutyl)-5-chloro-2-ethoxybenzamide] |  | 83 nM | 230 nM | 
CCOc1cc(F)c(Cl)cc1C(=O)NCC(C)(C)C(C)C(=O)Nc1c(COC)n(C)n(-c2ccccc2)c1=O (centres unmarked) [Example 159, 5-Chloro-2-ethoxy-4-fluoro-N-(4-{[5-(methoxymethyl)-1-methyl-3-oxo-2-phenyl-2,3-dihydro-1H-pyrazol-4-yl]amino}-2,2,3-trimethyl-4-oxobutyl)benzamide] |  | 77 nM |  | 840 nM

Continued, in another order:

GI50 [1] | IC50 (TIP48/TIP49 complex) | GI50 ([2]; Ramos) | Structure (SMILES) | GI50 [2]
180 nM | 170 nM |  | COc1ccc(Cl)cc1C(=O)NCC(C)(C)CC(=O)Nc1c(CN(C)C)n(C)n(-c2ccccc2)c1=O [Example 5, 5-Chloro-N-[4-({5-[(dimethylamino)methyl]-1-methyl-3-oxo-2-phenyl-2,3-dihydro-1H-pyrazol-4-yl}amino)-2,2-dimethyl-4-oxobutyl]-2-methoxybenzamide] | 
170 nM | 96 nM |  | COc1ccc(Cl)cc1C(=O)NCC(C)(C)CC(=O)Nc1c(CN(C)CCO)n(C)n(-c2ccccc2)c1=O [Example 8, 5-Chloro-N-(4-[(5-{[2-hydroxyethyl(methyl)amino]methyl}-1-methyl-3-oxo-2-phenyl-2,3-dihydro-1H-pyrazol-4-yl)amino]-2,2-dimethyl-4-oxobutyl)-2-methoxybenzamide] | 
45 nM | 14 nM |  | CCOc1ccc(Cl)cc1C(=O)NCC(C)(C)CC(=O)Nc1c(CCNC(=O)OC(C)(C)C)n(C)n(-c2ccccc2)c1=O [Example 10, tert-Butyl N-{2-[4({4-[(5-chloro-2-ethoxybenzoyl)amino]-3,3-dimethylbutanoyl}amino)-2-methyl-5-oxo-1-phenyl-2,3-dihydro-1H-pyrazol-3-yl]ethyl}carbamate] | 
130 nM | 60 nM |  | CCOc1ccc(Cl)cc1C(=O)NCC(C)(C)CC(=O)Nc1c(CCN(CC)CC)n(C)n(-c2ccccc2)c1=O [Example 17, 5-Chloro-N-[4-({5-[2-(diethylamino)ethyl]-1-methyl-3-oxo-2-phenyl-2,3-dihydro-1H-pyrazol-4-yl}amino)-2,2-dimethyl-4-oxobutyl]-2-ethoxybenzamide] | 
 | 55 nM | 130 nM | CCc1c(NC(=O)CC(C)(C)CNC(=O)c2cc(Cl)ccc2OCOC)c(=O)n(-c2ccccc2)n1C [Example 127, 5-Chloro-N-{4-[(5-ethyl-1-methyl-3-oxo-2-phenyl-2,3-dihydro-1H-pyrazol-4-yl)amino]-2,2-dimethyl-4-oxobutyl}-2-(methoxymethoxy)benzamide] | 
 | 52 nM | 190 nM | CCOc1ccc(Cl)cc1C(=O)NCC(C)(C)CC(=O)Nc1c(CCCC(=O)N(C)C)n(C)n(-c2ccccc2)c1=O [Example 129, 5-Chloro-N-[4-({5-[4-(dimethylamino)-4-oxobutyl]-1-methyl-3-oxo-2-phenyl-2,3-dihydro-1H-pyrazol-4-yl}amino)-2,2-dimethyl-4-oxobutyl]-2-ethoxybenzamide] | 
 | 54 nM | 64 nM | CCOc1ccc(Cl)cc1C(=O)NCC(C)(C)CC(=O)Nc1c(CCCCO)n(C)n(-c2ccccc2)c1=O [Example 130, 5-Chloro-2-ethoxy-N-(4-{[5-(4-hydroxybutyl)-1-methyl-3-oxo-2-phenyl-2,3-dihydro-1H-pyrazol-4-yl]amino}-2,2-dimethyl-4-oxobutyl)benzamide] | 
 | 62 nM | 130 nM | CCOc1ccc(Cl)cc1C(=O)NCC(C)(C)CC(=O)Nc1c(CC(=O)OC)n(C)n(-c2ccccc2)c1=O [Example 131, Methyl 2-[4-({4-[(5-chloro-2-ethoxybenzoyl)amino]-3,3-dimethylbutanoyl}amino)-2-methyl-5-oxo-1-phenyl-2,3-dihydro-1H-pyrazol-3-yl]acetate] | 
 | 100 nM | 120 nM | CCOc1ccc(Cl)cc1C(=O)NCC(C)(C)CC(=O)Nc1c(CC(N)=O)n(C)n(-c2ccccc2)c1=O [Example 132, N-(4-{[5-(2-Amino-2-oxoethyl)-1-methyl-3-oxo-2-phenyl-2,3-dihydro-1H-pyrazol-4-yl]amino}-2,2-dimethyl-4-oxobutyl)-5-chloro-2-ethoxybenzamide] | 
 | 81 nM | 500 nM | CCOc1ccc(Cl)cc1C(=O)NCC(C)(C)CC(=O)Nc1c(CCC(=O)N2CCCC2)n(C)n(-c2ccccc2)c1=O [Example 133, 5-Chloro-N-(2,2-dimethyl-4-{[1-methyl-3-oxo-5-(3-oxo-3-pyrrolidin-1-ylpropyl)-2-phenyl-2,3-dihydro-1H-pyrazol-4-yl]amino}-4-oxobutyl)-2-ethoxybenzamide] | 
 | 33 nM | 310 nM | CCOc1ccc(Cl)cc1C(=O)NCC(C)(C)CC(=O)Nc1c(CCC(F)(F)F)n(C)n(-c2ccccc2)c1=O [Example 158, 5-Chloro-N-(2,2-dimethyl-4-{[1-methyl-3-oxo-2-phenyl-5-(3,3,3-trifluoropropyl)pyrazol-4-yl]amino}-4-oxobutyl)-2-ethoxybenzamide] | 
